Some results are limits rather than exact numbers.

The target in this assay is neutrophil elastase (Homo sapiens (Human), UniProt P08246). Nature of the assay: Human Neutrophil Elastase Assay. Type of assay: biochemical. To be noted: substrate MeOSuc-Ala-Ala-Pro-Val-AMC. On the procedure: Human Neutrophil Elastase Assay
Chain of neutrophil elastase (P08246 30-247): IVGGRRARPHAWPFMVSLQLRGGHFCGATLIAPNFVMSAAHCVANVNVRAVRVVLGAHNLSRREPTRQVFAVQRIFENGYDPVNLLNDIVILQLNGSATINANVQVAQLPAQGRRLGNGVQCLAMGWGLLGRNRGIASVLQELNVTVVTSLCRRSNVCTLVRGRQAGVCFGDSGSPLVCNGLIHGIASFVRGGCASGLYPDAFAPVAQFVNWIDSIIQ
All other materials were of the highest grade commercially available.
The following buffers were used: Compound buffer: 100 mM Tris, 500 mM NaCl, adjusted to pH 7.5; Assay buffer: 100 mM Tris, 500 mM NaCl, adjusted to pH 7.5, containing 0.01% BSA.
Assay conditions: Test compounds were prediluted in DMSO and subsequently in compound buffer (5% DMSO final). […] After inactivation of the enzyme, fluorescence intensities were measured at 380 nm excitation and 460 nm emission wavelengths.
Each plate contains wells with a high value control (DMSO+enzyme+substrate) and wells with a low value control (DMSO+inactivated enzyme+substrate). IC50 values were estimated using a sigmoidal concentration response curve with variable slope. Means of low values were taken as 0%, means of high values as 100%.
`CC(=O)C1=C(C)N(c2cccc(C(F)(F)F)c2)C(=O)N(C)C1c1ccc(C#N)cc1C1=CCNCC1` (stereo not drawn) [Example 10, 4-[5-Acetyl-3,6-dimethyl-2-oxo-1-(3-trifluoromethyl-phenyl)-1,2,3,4-tetrahydro-pyrimidin-4-yl]-3-(1,2,3,6-tetrahydro-pyridin-4-yl)-benzonitrile]: the IC50 (as a rule, the concentration that gives 50% inhibition) was under 1 nM.
Next, `CCOC(=O)C1=C(C)N(c2cccc(C(F)(F)F)c2)C(=O)N(C)C1c1ccc(C#N)cc1C1=CCNCC1` (stereo not drawn) [Example 15, 4-[4-Cyano-2-(1,2,3,6-tetrahydro-pyridin-4-yl)-phenyl]-3,6-dimethyl-2-oxo-1-(3-trifluoromethyl-phenyl)-1,2,3,4-tetrahydro-pyrimidine-5-carboxylic acid ethyl ester]: 3 nM; `CCOC(=O)C1=C(C)N(c2cccc(C(F)(F)F)c2)C(=O)N(C)C1c1ccc(C#N)cc1C(=O)NC1CCS(=O)(=O)C1` (stereo not drawn) [Example 3.34]: 1 nM.
As for `CC(=O)C1=C(C)N(c2cccc(C(F)(F)F)c2)C(=O)N(C)C1c1ccc(C#N)cc1C(=O)NCC(F)F` (stereo not drawn) [Example 1.17], the figure is under 1 nM; as for `CCOC(=O)C1=C(C)N(c2cccc(C(F)(F)F)c2)C(=O)N(C)C1c1ccc(C#N)cc1C(=O)NC1CC1` (stereo not drawn) [Example 3.8], 3 nM.
Next, `CC(=O)C1=C(C)N(c2cccc(C(F)(F)F)c2)C(=O)N(C)C1c1ccc(C#N)cc1C(=O)NCc1ccnnc1` (stereo not drawn) [Example 1.49]: under 1 nM; `CNC(=O)c1cc(C#N)ccc1C1C(C(C)=O)=C(C)N(c2cccc(C(F)(F)F)c2)C(=O)N1C` (stereo not drawn) [Example 1.1]: under 1 nM; `CCOC(=O)C1=C(C)N(c2cccc(C(F)(F)F)c2)C(=O)N(C)C1c1ccc(C#N)cc1C(=O)NC1CCOCC1` (stereo not drawn) [Example 3.29]: 1.4 nM.
Turning to `CC(=O)C1=C(C)N(c2cccc(C(F)(F)F)c2)C(=O)N(C)C1c1ccc(C#N)cc1C(=O)NCc1cn(C)cn1` (stereo not drawn) [Example 1.58], the IC50 is under 1 nM.
`CC(=O)C1=C(C)N(c2cccc(C(F)(F)F)c2)C(=O)N(C)C1c1ccc(C#N)cc1C(=O)N(C)CCO` (stereo not drawn) [Example 1.14] came in with a 50% inhibitory concentration (IC50) of under 1 nM.
As for `CC(=O)C1=C(C)N(c2cccc(C(F)(F)F)c2)C(=O)N(C)[C@@H]1c1ccc(C#N)cc1C(=O)NC1CC1` [Example 13.2], the IC50 is under 1 nM.
On to `CCOC(=O)C1=C(C)N(c2cccc(C(F)(F)F)c2)C(=O)N(C)C1c1ccc(C#N)cc1C(=O)N1CCN(C(C)C)CC1` (stereo not drawn) [Example 3.45], for which the half-inhibitory concentration (IC50) came to 1.8 nM.
As to `CC(=O)C1=C(C)N(c2cccc(C(F)(F)F)c2)C(=O)N(C)C1c1ccc(C#N)cc1C1=CN(C(=O)OC(C)(C)C)CC1` (stereo not drawn) [Example 5.5], the half-inhibitory concentration (IC50) is 5.3 nM.
As for `CCOC(=O)C1=C(C)N(c2cccc(C(F)(F)F)c2)C(=O)N(C)C1c1ccc(C#N)cc1-c1ccco1` (stereo not drawn) [Example 14, 4-(4-Cyano-2-furan-2-yl-phenyl)-3,6-dimethyl-2-oxo-1-(3-trifluoromethyl-phenyl)-1,2,3,4-tetrahydro-pyrimidine-5-carboxylic acid ethyl ester], the figure is 3.7 nM; as for `CC(=O)C1=C(C)N(c2cccc(C(F)(F)F)c2)C(=O)N(C)C1c1ccc(C#N)cc1C(=O)N(C)Cc1cn[nH]c1` (stereo not drawn) [Example 1.56], 0.3 nM; as for `CCN1CCN(C(=O)c2cc(C#N)ccc2C2C(C(C)=O)=C(C)N(c3cccc(C(F)(F)F)c3)C(=O)N2C)CC1` (stereo not drawn) [Example 1.65], 4.1 nM.
The compound `CCOC(=O)C1=C(C)N(c2cccc(C(F)(F)F)c2)C(=O)N(C)C1c1ccc(C#N)cc1C(=O)N(C)Cc1cnn(C)c1` (stereo not drawn) [Example 3.33] yielded an IC50 of under 1 nM.
Compound `CCOC(=O)C1=C(C)N(c2cccc(C(F)(F)F)c2)C(=O)N(C)C1c1ccc(C#N)cc1C(=O)NC1CCN(C)CC1` (stereo not drawn) [Example 3.31] yielded an IC50 of 1 nM. In other words, the single-digit nanomolar range.
Compound `CCOC(=O)C1=C(C)N(c2cccc(C(F)(F)F)c2)C(=O)N(C)C1c1ccc(C#N)cc1-c1ccoc1` (stereo not drawn) [Example 14.1] displayed a half-maximal inhibitory concentration (IC50) of 3.2 nM. Against the preceding compound, the IC50 is about 3.2-fold higher.
The compound `CCOC(=O)C1=C(C)N(c2cccc(C(F)(F)F)c2)C(=O)N(C)C1c1ccc(C#N)cc1C(=O)N1CCNCC1` (stereo not drawn) [Example 4, 4-[4-Cyano-2-(piperazine-1-carbonyl)-phenyl]-3,6-dimethyl-2-oxo-1-(3-trifluoromethyl-phenyl)-1,2,3,4-tetrahydro-pyrimidine-5-carboxylic acid ethyl ester] displayed a half-inhibitory concentration (IC50) of 1.4 nM.
In turn, `CCOC(=O)C1=C(C)N(c2cccc(C(F)(F)F)c2)C(=O)N(C)C1c1ccc(C#N)cc1C(=O)NC1(C#N)CC1` (stereo not drawn) [Example 3.1] gave a 50% inhibitory concentration (IC50) of under 1 nM.
Next, `CC(=O)C1=C(C)N(c2cccc(C(F)(F)F)c2)C(=O)N(C)C1c1ccc(C#N)cc1C(=O)NCc1cccnc1` (stereo not drawn) [Example 1.48]: under 1 nM.
For `CC(=O)C1=C(C)N(c2cccc(C(F)(F)F)c2)C(=O)N(C)C1c1ccc(C#N)cc1-c1cnn(C)c1` (stereo not drawn) [Example 5.3], the IC50 turned out to be 1.1 nM.
Next, `CC(=O)C1=C(C)N(c2cccc(C(F)(F)F)c2)C(=O)N(C)C1c1ccc(C#N)cc1C(=O)N1CC[C@@H](N(C)C)C1` (stereo partly drawn) [Example 1.63]: 1.8 nM; `CC(=O)C1=C(C)N(c2cccc(C(F)(F)F)c2)C(=O)N(C)C1c1ccc(C#N)cc1C(=O)N1CC[C@H](N)C1` (stereo partly drawn) [Example 2.11]: under 1 nM.
`CCOC(=O)C1=C(C)N(c2cccc(C(F)(F)F)c2)C(=O)N(C)C1c1ccc(C#N)cc1C(=O)NCCS(C)(=O)=O` (stereo not drawn) [Example 3.32] showed a half-inhibitory concentration (IC50) of 1.1 nM.
As for `CCOC(=O)C1=C(C)N(c2cccc(C(F)(F)F)c2)C(=O)N(C)C1c1ccc(C#N)cc1C(=O)N(C)C` (stereo not drawn) [Example 3, 4-(4-Cyano-2-dimethylcarbamoyl-phenyl)-3,6-dimethyl-2-oxo-1-(3-trifluoromethyl-phenyl)-1,2,3,4-tetrahydro-pyrimidine-5-carboxylic acid ethyl ester], the figure is under 1 nM; as for `CCOC(=O)C1=C(C)N(c2cccc(C(F)(F)F)c2)C(=O)N(C)C1c1ccc(C#N)cc1C(=O)NCCCOC` (stereo not drawn) [Example 3.25], 1.2 nM; as for `CCOC(=O)C1=C(C)N(c2cccc(C(F)(F)F)c2)C(=O)N(C)C1c1ccc(C#N)cc1C(=O)NCC(F)(F)F` (stereo not drawn) [Example 3.26], 1.6 nM.
As for `COCCCN(C)C(=O)c1cc(C#N)ccc1C1C(C(C)=O)=C(C)N(c2cccc(C(F)(F)F)c2)C(=O)N1C` (stereo not drawn) [Example 1.27], the IC50 is under 1 nM.
In the case of `CC(=O)C1=C(C)N(c2cccc(C(F)(F)F)c2)C(=O)N(C)C1c1ccc(C#N)cc1C(=O)NCc1nnnn1C` (stereo not drawn) [Example 1.62], the IC50 was under 1 nM.
`CC(=O)C1=C(C)N(c2cccc(C(F)(F)F)c2)C(=O)N(C)C1c1ccc(C#N)cc1C(=O)N1CCn2ccnc2C1` (stereo not drawn) [Example 1.70] showed a 50% inhibitory concentration (IC50) of under 1 nM.
Compound `CCOC(=O)C1=C(C)N(c2cccc(C(F)(F)F)c2)C(=O)N(C)C1c1ccc(C#N)cc1C(=O)N1CCC1` (stereo not drawn) [Example 3.9] gave a half-inhibitory concentration (IC50) of 3 nM.
As for `CC(=O)C1=C(C)N(c2cccc(C(F)(F)F)c2)C(=O)N(C)C1c1ccc(C#N)cc1C(=O)NC(C)c1ccco1` (stereo not drawn) [Example 1.51], the figure is 1.4 nM; as for `CCOC(=O)C1=C(C)N(c2cccc(C(F)(F)F)c2)C(=O)N(C)C1c1ccc(C#N)cc1C(=O)N1CCNC(C)C1` (stereo not drawn) [Example 4.17], 2 nM; as for `CCOC(=O)C1=C(C)N(c2cccc(C(F)(F)F)c2)C(=O)N(C)C1c1ccc(C#N)cc1C(=O)N1CCN(C2CC2)CC1` (stereo not drawn) [Example 3.42], 2.9 nM.

The values above are taken from patent US9290457B2, “Substituted dihydropyrimidinones and their use as inhibitors of neutrophil elastase activity” (Boehringer Ingelheim International GmbH, priority 2014, dated 2016).
